Assay results reported in patent US20080132466A1, “Blood Cholesterol Reducing Oral Composition” (priority 2005, published 2008).

Test system: Wister-ST male rats
Assay: Total plasma cholesterol lowering effect of DFA and isoflavone in combination, rats fed for 19 days
Format: in vivo
Conditions: 1.5% in isoflavone-containing feed
From the text: A total plasma cholesterol lowering effect was studied using DFA and an isoflavone in combination.
After preliminary feeding 21 Wister-ST male rats (6 weeks of age) a non-isoflavone feed for 3 days, the animals were divided into 3 groups (each n=7) by a body weight stratification procedure and were individually fed for 19 days a basal feed containing 0.25% food product supplemented with 40% isoflavone (basal diet group), a feed in which cellulose in the basal feed was replaced with 1.5% (final) DFA III (DFA III group), and a feed in which cellulose in the basal feed was replaced with 1.5% (final) fructooligosaccharide (FOS group), as shown in Table 1. On the 20th day, blood samples were taken from the abdominal aorta to obtain plasma by centrifugation and the total plasma cholesterol was measured using an automatic analyzer (DRI-CHEM 3500, Fuji Film Medical).
In the table, figures with different alphabets, a and b, denote that there is a significant difference between the figures. […] The level of HDL cholesterol was slightly low in the DFA III group; however, the differences between the groups were not significant.

## OC[C@H]1O[C@@]2(CO[C@]3(CO)O[C@H](CO)[C@@H](O)[C@@H]3O2)[C@@H](O)[C@@H]1O [DFA III, difructose anhydride]
Differences between groups not significant
  level of HDL cholesterol (in words): slightly low
p=0.051 (Sheffe) basal diet vs DFA III
  total serum cholesterol level compared to the group fed an isoflavone alone (in words): tended to be lowered
